Data on 2 compounds can be found in patent publication US9605002B2, “5,5-heteroaromatic anti-infective compounds” (priority 2012, dated 2017).

Holding throughout (assay): MIC against clinical Mtb strains
Type in all cases: cell-based
Conditions in all cases: Mycobacterium tuberculosis

Assay [1] concerns MDR-TB resistant to HREZSKP.
The subject of assay [2] is MDR-TB resistant to HREKP.
Assay [3] has as its system MDR-TB resistant to HRERb.
Assay [4] relates to XDR-TB resistant to HRESKO.
For assay [5], the system named is XDR-TB resistant to HREKO.

Broadly, the MIC90 is an inhibitory concentration at the 90% level, which refers to growth in some studies and to a panel of isolates in others.

Where “and” joins values, the source holds several entries; their conditions need not be identical. Equal values may be shown once. Some results are limits rather than exact numbers.

For the compound `O=[N+]([O-])c1cn2c(n1)OC[C@@H](OCc1ccc(OC(F)(F)F)cc1)C2` [PA-824, reference compound], the MIC90 in assay [1] is 0.45 µM to 0.86 µM and 0.16 µg/mL to 0.31 µg/mL; in assay [2], 0.45 µM to 0.86 µM and 0.16 µg/mL to 0.31 µg/mL; in assay [3], 0.45 µM to 0.86 µM and 0.16 µg/mL to 0.31 µg/mL; in assay [4], 0.86 µM and 0.31 µg/mL; in assay [5], 0.22 µM and 0.08 µg/mL.

In the case of `Cc1cn2c(C(=O)NCc3ccc(Oc4ccc(F)cc4)cc3)c(C)nc2s1` [ND-010081], the MIC90 in assay [1] was 0.02 µM to 10 µM and 0.05 µg/mL to 25 µg/mL; in assay [2], < 0.01 µM and < 0.025 µg/mL; in assay [3] it was 0.63 µM and 1.6 µg/mL; in assay [4] it was < 0.01 µM and < 0.025 µg/mL; in assay [5] it was < 0.01 µM and < 0.025 µg/mL.
